Experimental data published in publication PMC8285372, “Biochemical and functional characterization of mutant KRAS epitopes validates this oncoprotein for immunological targeting” (Nature Communications, 2021).
No end group written: not given here.

Columns and labels:
HLA-A*03:01 [1] = biological target: T1, HLA-A*03:01 (Homo sapiens, UniProt P04439); assay: fluorescence polarization competitive peptide-binding assay
HLA-A*11:01 [2] = biological target: T2, HLA-A*11:01 (Homo sapiens, UniProt P04439, A114D/D185E/E176A/F33Y/L180Q/S129P/T187R); assay: as above
HLA-A*03:01 [3] = biological target: T1, HLA-A*03:01; assay: p-HLA complex stability, scintillation proximity assay of β2-microglobulin dissociation; format: binding
HLA-A*11:01 [4] = biological target: T2, HLA-A*11:01; assay: as above; format: binding
HLA-A*02:01 [5] = biological target: T3, HLA-A*02:01 (Homo sapiens, UniProt P04439, D140Y/D185E/D98H/E176V/E277Q/G131W/G231S/I119V/I121R/I166T/I218V/L300P/L318F/N151K/N90K/P208A/P217A/Q86G/Q94H/R138H/R169H/T345S); format: binding
HLA-B*07:02 [6] = biological target: T4, HLA-B*07:02 (Homo sapiens, UniProt P01889); assay: fluorescence polarization competitive peptide-binding assay; conditions: Experimental Affinity IC50
HLA-A*02:01 [7] = biological target: T3, HLA-A*02:01; assay: as above
HLA-B*07:02 [8] = biological target: T4, HLA-B*07:02; format: binding

ALLAVGATK [gp17-25]
IC50 (HLA-A*03:01 [1]; Experimental Affinity IC50): 0.962 µM | IC50 (HLA-A*11:01 [2]): 225 nM

ALNTITNLK
Experimental Stability (t1/2) Mean (HLA-A*03:01 [3]): 10.6 h | Half_life, Setp #1 (HLA-A*03:01 [3]): 11.4 h | Half_life, Setp #2 (HLA-A*03:01 [3]): 9.7 h | k, Setp #1 (HLA-A*03:01 [3]): 0.061 | k, Setp #2 (HLA-A*03:01 [3]): 0.0711

ASLPTTIAK
Experimental Stability (t1/2) Mean (HLA-A*11:01 [4]): 22.5 h | Half_life, Setp #1 (HLA-A*11:01 [4]): 23.8 h | Half_life, Setp #2 (HLA-A*11:01 [4]): 21.1 h | k, Setp #1 (HLA-A*11:01 [4]): 0.0291 | k, Setp #2 (HLA-A*11:01 [4]): 0.0328

FLIDLAFLI
Experimental Stability (t1/2) Mean (HLA-A*02:01 [5]): 10.1 h | Half_life, Setp #1 (HLA-A*02:01 [5]): 11 h | Half_life, Setp #2 (HLA-A*02:01 [5]): 9.2 h | k, Setp #1 (HLA-A*02:01 [5]): 0.063 | k, Setp #2 (HLA-A*02:01 [5]): 0.0751

GAGGVGKSAL [Peptide 10-19]
IC50 (HLA-B*07:02 [6]): 76.9 µM

GRAFVTIGK
IC50 (HLA-B*07:02 [6]): 0.371 µM

KITDFGIAK [HLA-A*11:01 control, Serine/threonine-protein kinase PknA, Mycobacterium tuberculosis, IEDB 109407]
Experimental Stability (t1/2) Mean (HLA-A*11:01 [4]): 15.6 h | Half_life, Setp #1 (HLA-A*11:01 [4]): 16.7 h | Half_life, Setp #2 (HLA-A*11:01 [4]): 14.6 h | k, Setp #1 (HLA-A*11:01 [4]): 0.0415 | k, Setp #2 (HLA-A*11:01 [4]): 0.0476

KLAQRRVFH
Experimental Stability (t1/2) Mean (HLA-A*03:01 [3]): 3.5 h | Half_life, Setp #1 (HLA-A*03:01 [3]): 3.5 h | Half_life, Setp #2 (HLA-A*03:01 [3]): 3.6 h | k, Setp #1 (HLA-A*03:01 [3]): 0.2008 | k, Setp #2 (HLA-A*03:01 [3]): 0.1902

KLVVVGAGGV [Peptide 5-14]
IC50 (HLA-A*02:01 [7]): 10.9 µM

KLVVVGARGV [Peptide 5-14R]
IC50 (HLA-A*02:01 [7]): 20.7 µM

RLARAIIEL [HLA-A*02:01 control, Genome polyprotein, West Nile virus, IEDB 54476]
Experimental Stability (t1/2) Mean (HLA-A*02:01 [5]): 3 h | Half_life, Setp #1 (HLA-A*02:01 [5]): 3.3 h | Half_life, Setp #2 (HLA-A*02:01 [5]): 2.8 h | k, Setp #1 (HLA-A*02:01 [5]): 0.2104 | k, Setp #2 (HLA-A*02:01 [5]): 0.2479

RPIDDRFGL
Experimental Stability (t1/2) Mean (HLA-B*07:02 [8]): 3.2 h | Half_life, Setp #1 (HLA-B*07:02 [8]): 4 h | Half_life, Setp #2 (HLA-B*07:02 [8]): 2.5 h | k, Setp #1 (HLA-B*07:02 [8]): 0.174 | k, Setp #2 (HLA-B*07:02 [8]): 0.2746

RPIDDRFGLAL
Experimental Stability (t1/2) Mean (HLA-B*07:02 [8]): 1.1 h | Half_life, Setp #1 (HLA-B*07:02 [8]): 1.2 h | Half_life, Setp #2 (HLA-B*07:02 [8]): 1.1 h | k, Setp #1 (HLA-B*07:02 [8]): 0.5749 | k, Setp #2 (HLA-B*07:02 [8]): 0.6051

RVKLSALTLK
Experimental Stability (t1/2) Mean (HLA-A*03:01 [3]): 12.3 h | Half_life, Setp #1 (HLA-A*03:01 [3]): 11.6 h | Half_life, Setp #2 (HLA-A*03:01 [3]): 13.1 h | k, Setp #1 (HLA-A*03:01 [3]): 0.0597 | k, Setp #2 (HLA-A*03:01 [3]): 0.053

SPRERLVLTL
Experimental Stability (t1/2) Mean (HLA-B*07:02 [8]): 1 h | Half_life, Setp #1 (HLA-B*07:02 [8]): 1.1 h | Half_life, Setp #2 (HLA-B*07:02 [8]): 0.9 h | k, Setp #1 (HLA-B*07:02 [8]): 0.6505 | k, Setp #2 (HLA-B*07:02 [8]): 0.7477

TVNPIVTEK [HLA-A*11:01 control, Genome polyprotein, Dengue virus, IEDB 67094]
Experimental Stability (t1/2) Mean (HLA-A*11:01 [4]): 11.4 h | Half_life, Setp #1 (HLA-A*11:01 [4]): 11.8 h | Half_life, Setp #2 (HLA-A*11:01 [4]): 11 h | k, Setp #1 (HLA-A*11:01 [4]): 0.0587 | k, Setp #2 (HLA-A*11:01 [4]): 0.0631

VLWDIPTPK
Experimental Stability (t1/2) Mean (HLA-A*03:01 [3]): 4.7 h | Half_life, Setp #1 (HLA-A*03:01 [3]): 4.5 h | Half_life, Setp #2 (HLA-A*03:01 [3]): 4.9 h | k, Setp #1 (HLA-A*03:01 [3]): 0.1534 | k, Setp #2 (HLA-A*03:01 [3]): 0.1427 | Experimental Stability (t1/2) Mean (HLA-A*11:01 [4]): 8 h | Half_life, Setp #1 (HLA-A*11:01 [4]): 8.4 h | Half_life, Setp #2 (HLA-A*11:01 [4]): 7.5 h | k, Setp #1 (HLA-A*11:01 [4]): 0.0825 | k, Setp #2 (HLA-A*11:01 [4]): 0.093

VVGARGVGK [Peptide 8-16R]
IC50 (HLA-A*03:01 [1]; Experimental Affinity IC50): 5.3 µM | IC50 (HLA-A*11:01 [2]): 634 nM

VVVGARGVGK [Peptide 7-16R]
IC50 (HLA-A*03:01 [1]; Experimental Affinity IC50): 3.24 µM | IC50 (HLA-A*03:01 [1]; Experimental Affinity log10[IC50]): ≤ 0.00359 µM | IC50 (HLA-A*11:01 [2]): 566 nM
